Paper PMC12405493, “Selective ubiquitination of drug-like small molecules by the ubiquitin ligase HUWE1” (Nature Communications, 2025)

Experiments:
[1] = target: T1, HUWE1-HECT-Ub vinylthioether-linked conjugate (Homo sapiens, UniProt Q7Z6Z7); assay: HDX-MS of HUWE1^HECT~Ub proxy with inhibitors; type: binding; conditions: 10-fold molar excess of inhibitor
T1 construct: The preparation of the vinylthioether-linked HUWE1^HECT-Ub complex was also previously described; made in house; host or cells: bacteria (components)
Procedure: (§1) Two experiments were performed: 50 μM HUWE1^HECT (1) or HUWE1^HECT-Ub conjugate (2) were incubated with 500 μM of BI8626 or BI8622 for 1 h on ice prior HDX-MS. Individual HDX reactions were generated with a 2-arm autosampler (LEAP Technologies) by mixing 6.5 μL sample with 58.5 μL of HDX buffer (20 mM HEPES pH 8.0, 150 mM NaCl, 5 mM DTT) prepared with 99.9% D2O, incubation at 25 °C for various times, before quenching by mixing 55 μL with an equal volume of 400 mM KH2PO4/H3PO4 (pH 2.2) and 2 M guanidine-HCl (precooled at 1 °C). Non-deuterated samples were generated analogously by 10-fold dilution with H2O-based buffer. […] For each protein state and time-point, three individual HDX reactions were measured.
(§2) Peptide identification and HDX analysis was performed with ProteinLynx Global SERVER v.3.0.1 (PLGS; Waters) and DynamX v.3.0 (Waters), as described previously. […] Only peptides with an intensity >10,000 counts, ≤ 30 residues, ≥ 2 products with ≥ 0.05 products/residue, ≤ 25 ppm mass error and retention time tolerance of 0.5 min were analysed. […] The maximal deuterium uptake of a given peptide was calculated by the number of residues minus one for the N-terminal residue and minus the number of prolines. […]

HUWE1^HECT [2] = target: T2, HUWE1^HECT (Homo sapiens, UniProt Q7Z6Z7); assay: HDX-MS of HUWE1^HECT with inhibitors; type: binding; conditions: 10-fold molar excess of inhibitor
T2 construct: the isolated HECT domain of HUWE1 (HUWE1^HECT); made in house
T2 sequence (Q7Z6Z7 4038-4374 limits assumed): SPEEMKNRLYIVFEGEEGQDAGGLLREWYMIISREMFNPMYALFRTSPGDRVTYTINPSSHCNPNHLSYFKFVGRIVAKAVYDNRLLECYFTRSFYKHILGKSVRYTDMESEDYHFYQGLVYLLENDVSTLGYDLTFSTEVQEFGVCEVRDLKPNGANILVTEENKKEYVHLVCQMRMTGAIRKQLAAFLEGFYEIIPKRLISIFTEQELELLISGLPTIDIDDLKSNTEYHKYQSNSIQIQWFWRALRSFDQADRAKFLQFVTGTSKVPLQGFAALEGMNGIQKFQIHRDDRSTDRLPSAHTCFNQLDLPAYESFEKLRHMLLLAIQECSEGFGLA
Procedure: as §1, §2

HUWE1^HECT [3] = test system: HUWE1^HECT; set-up: method as in PMID 25253726; conditions: in vitro; read-out: IC50 of HUWE1^HECT inhibition; cited from earlier work

SMILES	Binding to HUWE1^HECT~Ub proxy by HDX-MS [1]	Binding to HUWE1^HECT by HDX-MS (HUWE1^HECT [2])	IC50 (HUWE1^HECT [3]) [nM]
Cc1c(C(=O)Nc2ccc(CN)cc2)ncnc1N1CCC(C#N)(c2ccccc2)CC1 [BI8622]	did not provide evidence of binding	did not provide evidence of binding	3100
NCc1cccc(CNc2ncnc3c(N4CCN(Cc5ccccc5)CC4)ncnc23)c1 [BI8626]	did not provide evidence of binding	did not provide evidence of binding	900
